Source: patent publication US5747448A, “Derivatives of cyclodepsipeptide PF 1022” (Meiji Seika Kaisha, Ltd., priority 1993, dated 1998)
Where two headings read alike, the source gives them in different places.

How the values were obtained:
[1] = amide bond, 24-membered ring, THF/DMF
fowl roundworms = assay: Fowl Roundworm Eliminating Test; format: in vivo; settings: infected fowls, worms counted to day 7
Procedure: Test 1 Fowl Roundworm Eliminating Test Fowls (three fowls per group), which had been artificially infected with fowl roundworms and whose infection therewith had been confirmed by scatoscopy, were used as experimental animals. Upon administration of each test substance, the test substance weighed in a dose (mg) accurately calculated on the basis of the body weight (kg) of each fowl was suspended in carboxymethylcellulose-containing water, and the resulting suspension was administered orally as a single dose unit using a stomach tube. After the administration, the worms eliminated from the fowls were counted daily. Seven days after the administration, the fowl was sacrificed and autopsied and the worms remaining in its intestinal tract were counted. The percent elimination was calculated in accordance with the following calculation equation: [formula] Each test substance is indicated by the corresponding substance code name shown above in Table 1.

[2] = test system: Nippostrongylus brasillensis; assay: Anthelmintic effects on a rat intestinal nematode (N. brasillensis-infected rats); format: in vivo; settings: male Wistar rats; for Number of remaining worms (average value ± SD): 10 mg/kg p.o. 7 days after inoculation, autopsy 10 days after inoculation; for % Effectiveness: 10 mg/kg p.o., compared with infected control group
Procedure: Anthelmintic effects of certain PF1022 derivatives on a rat intestinal nematode were tested in accordance with the following method.
Sixteen male Wistar rats were divided into eight groups (two rats per group), and about 2,000 larval worms of Nippostrongylus brasillensis were hypodermically inoculated per rat. Seven days after the inoculation, PF1022, PF1022E, PF1022-002, PF1022-003, PF1022-209, PF1022-218 and PF1022-219 were, as test substances, forcedly administered p.o. to the rats in the groups, respectively, in an amount of 10 mg/kg per rat. Upon administration, each test substance (8 mg) was dissolved in 0.2 ml of dimethyl sulfoxide and then, the resultant solution was diluted with distilled water to give a 2 ml suspension. Ten days after the inoculation,the rats were each subjected to autopsy and imaginal worms parasitic on the small intestines were counted.
As the test results, the average of remaining worms in each of the eight groups and the percent effectiveness of the test substance in each group as compared with that of the infected control group are shown in Table 4.

Molecule: CCCCCC[C@H]1OC(=O)[C@H](CC(C)C)N(C)C(=O)[C@@H](C)OC(=O)[C@H](CC(C)C)N(C)C(=O)[C@@H](Cc2ccccc2)OC(=O)[C@H](CC(C)C)N(C)C(=O)[C@@H](C)OC(=O)[C@H](CC(C)C)N(C)C1=O
- ring closure, isolated yield ([1]; from H-MeLeu-dOctA-MeLeu-dLac-MeLeu-dPhLac-MeLeu-dLac-OH, EDCI.HCl/HOBt/NMM/LiCl/NaCl/KCl/CsCl, 0.95 mM): 24.7%

Molecule: CCCC[C@H]1OC(=O)[C@H](CC(C)C)N(C)C(=O)[C@@H](Cc2ccccc2)OC(=O)[C@H](CC(C)C)N(C)C(=O)[C@@H](C)OC(=O)[C@H](CC(C)C)N(C)C(=O)[C@@H](Cc2ccccc2)OC(=O)[C@H](CC(C)C)N(C)C1=O
- ring closure, isolated yield ([1]; from H-MeLeu-dLac-MeLeu-dPhLac-MeLeu-dnorLEUA-MeLeu-dPhLac-OH, EDCI.HCl/HOBt/NMM/LiCl/NaCl/KCl/CsCl, 0.76 mM): 82%

Molecule: CC(C)C[C@@H]1NC(=O)[C@@H](C)OC(=O)[C@H](CC(C)C)N(C)C(=O)[C@@H](Cc2ccccc2)OC(=O)[C@H](CC(C)C)NC(=O)[C@@H](C)OC(=O)[C@H](CC(C)C)N(C)C(=O)[C@@H](Cc2ccccc2)OC1=O [Cyclo-(L-MeLeu-D-Lac-L-Leu-D-PhLac)2]
- ring closure, isolated yield ([1]; from H-MeLeu-dLac-Leu-dPhLac-MeLeu-dLac-Leu-dPhLac-OH, EDCI.HCl/HOBt/NMM, LiCl/KCl/NaCl/CsCl, 0.96 mM, 25.0 °C, 3 steps): 55.8%

Molecule: CCCCCC[C@H]1OC(=O)[C@H](CC(C)C)N(C)C(=O)[C@@H](C)OC(=O)[C@H](CC(C)C)N(C)C(=O)[C@@H](CCCCCC)OC(=O)[C@H](CC(C)C)N(C)C(=O)[C@@H](C)OC(=O)[C@H](CC(C)C)N(C)C1=O [Cyclo-(L-MeLeu-D-OctA-L-MeLeu-D-Lac)2]
- ring closure, isolated yield ([1]; from H-MeLeu-dOctA-MeLeu-dLac-MeLeu-dOctA-MeLeu-dLac-OH, EDCI.HCl/HOBt/NMM/LiCl/NaCl/KCl/CsCl, 0.81 mM): 92%

Molecule: CC(C)C[C@@H]1NC(=O)[C@@H](Cc2ccccc2)OC(=O)[C@H](CC(C)C)N(C)C(=O)[C@@H](C)OC(=O)[C@H](CC(C)C)NC(=O)[C@@H](Cc2ccccc2)OC(=O)[C@H](CC(C)C)N(C)C(=O)[C@@H](C)OC1=O [Cyclo-(L-MeLeu-D-PhLac-L-Leu-D-Lac)2]
- ring closure, isolated yield ([1]; from H-MeLeu-dPhLac-Leu-dLac-MeLeu-dPhLac-Leu-dLac-OH, EDCI.HCl/HOBt/NMM, LiCl/KCl/NaCl/CsCl, 0.96 mM, 25.0 °C, 3 steps): 62%

Molecule: CC(C)C[C@H]1C(=O)O[C@H](C(C)C)C(=O)N(C)[C@@H](CC(C)C)C(=O)O[C@H](C)C(=O)N(C)[C@@H](CC(C)C)C(=O)O[C@H](C(C)C)C(=O)N(C)[C@@H](CC(C)C)C(=O)O[C@H](C)C(=O)N1C [Cyclo-(L-MeLeu-D-VALA-L-MeLeu-D-Lac)2]
- ring closure, isolated yield ([1]; from H-MeLeu-dVALA-MeLeu-dLac-MeLeu-dVALA-MeLeu-dLac-OH, EDCI.HCl/HOBt/NMM/LiCl/NaCl/KCl/CsCl, 0.88 mM): 92%

Molecule: CC[C@@H](C)[C@H]1OC(=O)[C@H](CC(C)C)N(C)C(=O)[C@@H](Cc2ccccc2)OC(=O)[C@H](CC(C)C)N(C)C(=O)[C@@H]([C@H](C)CC)OC(=O)[C@H](CC(C)C)N(C)C(=O)[C@@H](Cc2ccccc2)OC(=O)[C@H](CC(C)C)N(C)C1=O [Cyclo-(L-MeLeu-D-isoLEUA-L-MeLeu-D-PhLac)2]
- ring closure, isolated yield ([1]; from H-MeLeu-disoLEUA-MeLeu-dPhLac-MeLeu-disoLEUA-MeLeu-dPhLac-OH, EDCI.HCl/HOBt/NMM/LiCl/NaCl/KCl/CsCl, 0.87 mM, 3 steps): 29%

Molecule: CCCC[C@H]1OC(=O)[C@H](CC(C)C)N(C)C(=O)[C@@H](Cc2ccccc2)OC(=O)[C@H](CC(C)C)N(C)C(=O)[C@@H](CCCC)OC(=O)[C@H](CC(C)C)N(C)C(=O)[C@@H](Cc2ccccc2)OC(=O)[C@H](CC(C)C)N(C)C1=O [Cyclo-(L-MeLeu-D-norLEUA-L-MeLeu-D-PhLac)2]
- ring closure, isolated yield ([1]; from H-MeLeu-dnorLEUA-MeLeu-dPhLac-MeLeu-dnorLEUA-MeLeu-dPhLac-OH, EDCI.HCl/HOBt/NMM/LiCl/NaCl/KCl/CsCl, 0.82 mM, 3 steps): 35.8%

Molecule: CC(C)C[C@H]1C(=O)O[C@H](Cc2ccc(O)cc2)C(=O)N(C)[C@@H](CC(C)C)C(=O)O[C@H](C)C(=O)N(C)[C@@H](CC(C)C)C(=O)O[C@H](Cc2ccccc2)C(=O)N(C)[C@@H](CC(C)C)C(=O)O[C@H](C)C(=O)N1C [H-MeLeu-dLac-MeLeu-dTYRA-MeLeu-dLac-MeLeu-dPhLac-OH]
- ring closure, isolated yield ([1]; from H-MeLeu-dLac-MeLeu-dTYRA-MeLeu-dLac-MeLeu-dPhLac-OH, EDCI.HCl/HOBt/NMM/LiCl/KCl/NaCl/CsCl, 0.89 mM): 33%

Molecule: CC(C)C[C@H]1C(=O)O[C@H](Cc2ccc(O)cc2)C(=O)N(C)[C@@H](CC(C)C)C(=O)O[C@H](C)C(=O)N(C)[C@@H](CC(C)C)C(=O)O[C@H](Cc2ccccc2)C(=O)N(C)[C@@H](CC(C)C)C(=O)O[C@H](C)C(=O)N1C [PF1022 E, cyclo-(-L-Meleu-D-Lac-L-MeLeu-D-TYRA-L-MeLeu-D-Lac-L-MeLeu-D-PhLac)]
- % Elimination (fowl roundworms; single oral dose 0.5 mg/kg): 70%
- Number of remaining worms (average value ± SD) [2]: 2175 ± 134.4
- % Effectiveness [2]: 0%

Molecule: CC(C)CC1C(=O)OC(C)C(=O)N(C)C(CC(C)C)C(=O)OC(C)C(=O)N(C)C(CC(C)C)C(=O)OC(C)C(=O)N(C)C(CC(C)C)C(=O)OC(C)C(=O)N1C [PF1022-002, cyclo-(L-MeLeu-D-Lac-)4]
- Number of remaining worms (average value ± SD) [2]: 1976.5
- % Effectiveness [2]: 2.7%

Molecule: COc1ccc(C[C@H]2OC(=O)[C@H](CC(C)C)N(C)C(=O)[C@@H](C)OC(=O)[C@H](CC(C)C)N(C)C(=O)[C@@H](Cc3ccccc3)OC(=O)[C@H](CC(C)C)N(C)C(=O)[C@@H](C)OC(=O)[C@H](CC(C)C)N(C)C2=O)cc1 [PF1022-005, cyclo-(-L-MeLeu-D-Lac-L-MeLeu-D-PhLac-L-MeLeu-D-Lac-L-MeLeu-D-TYRA(OMe)]
- % Elimination (fowl roundworms; single oral dose 0.5 mg/kg): 73%
- % Elimination (fowl roundworms; single oral dose 1.0 mg/kg): 89%
- % Elimination (fowl roundworms; single oral dose 2.0 mg/kg): 100%

Molecule: CCOc1ccc(C[C@H]2OC(=O)[C@H](CC(C)C)N(C)C(=O)[C@@H](C)OC(=O)[C@H](CC(C)C)N(C)C(=O)[C@@H](Cc3ccccc3)OC(=O)[C@H](CC(C)C)N(C)C(=O)[C@@H](C)OC(=O)[C@H](CC(C)C)N(C)C2=O)cc1 [PF1022-016, cyclo-(L-MeLeu-D-PhLac-L-MeLeu-D-Lac-L-MeLeu-D-TYRA(OEt)-L-MeLeu-D-Lac)]
- % Elimination (fowl roundworms; single oral dose 0.5 mg/kg): 55%
- % Elimination (fowl roundworms; single oral dose 1.0 mg/kg): 61%
- % Elimination (fowl roundworms; single oral dose 2.0 mg/kg): 100%

Molecule: CCCCOc1ccc(C[C@H]2OC(=O)[C@H](CC(C)C)N(C)C(=O)[C@@H](C)OC(=O)[C@H](CC(C)C)N(C)C(=O)[C@@H](Cc3ccccc3)OC(=O)[C@H](CC(C)C)N(C)C(=O)[C@@H](C)OC(=O)[C@H](CC(C)C)N(C)C2=O)cc1 [PF1022-021, cyclo-(L-MeLeu-D-PhLac-L-MeLeu-D-Lac-L-MeLeu-D-TYRA(O-n-Bu)-L-MeLeu-D-Lac)]
- % Elimination (fowl roundworms; single oral dose 1.0 mg/kg): 41%
- % Elimination (fowl roundworms; single oral dose 2.0 mg/kg): 90%

Molecule: CC(C)CC1NC(=O)C(Cc2ccccc2)OC(=O)C(CC(C)C)N(C)C(=O)C(C)OC(=O)C(CC(C)C)NC(=O)C(Cc2ccccc2)OC(=O)C(CC(C)C)N(C)C(=O)C(C)OC1=O [PF1022-218, cyclo-(L-MeLeu-D-PhLac-L-Leu-D-Lac)2]
- Number of remaining worms (average value ± SD) [2]: 2400 ± 362.0
- % Effectiveness [2]: 0%

Molecule: CC(C)CC1C(=O)OC(CC2CCCCC2)C(=O)N(C)C(CC(C)C)C(=O)OC(C)C(=O)N(C)C(CC(C)C)C(=O)OC(CC2CCCCC2)C(=O)N(C)C(CC(C)C)C(=O)OC(C)C(=O)N1C (stereo not shown) [PF1022-ADH, dodecahydro-PF1022]
- % Elimination (fowl roundworms; single oral dose 5 mg/kg): 30%

Molecule: CC(C)CC1C(=O)OC(CC2CCCCC2)C(=O)N(C)C(CC(C)C)C(=O)OC(C)C(=O)N(C)C(CC(C)C)C(=O)OC(Cc2ccccc2)C(=O)N(C)C(CC(C)C)C(=O)OC(C)C(=O)N1C (stereo not shown) [PF1022-AHH, hexahydro-PF1022]
- % Elimination (fowl roundworms; single oral dose 5 mg/kg): 62%

Molecule: cyclo-(L-MeLeu-D-PhLac-L-MeLeu-D-Lac-L-MeLeu-D-TYRA(O-All)-L-MeLeu-D-Lac) [PF1022-020]
- % Elimination (fowl roundworms; single oral dose 1.0 mg/kg): 54%
- % Elimination (fowl roundworms; single oral dose 2.0 mg/kg): 100%

Molecule: cyclo-(L-MeLeu-D-PhLac-L-MeLeu-D-Lac-L-MeLeu-D-TYRA(OBn)-L-MeLeu-D-Lac) [PF1022-022]
- % Elimination (fowl roundworms; single oral dose 1.0 mg/kg): 40%
- % Elimination (fowl roundworms; single oral dose 2.0 mg/kg): 93%
- % Elimination (fowl roundworms; single oral dose 5 mg/kg): 84%

Molecule: cyclo-(L-MeLeu-D-VALA-L-MeLeu-D-Lac)2 [PF1022-209]
- Number of remaining worms (average value ± SD) [2]: 827 ± 388.9
- % Effectiveness ([2]; 10 mg/kg): 59.3%
- % Effectiveness ([2]; listed as PF 1022-209, 10 mg/kg): 59.8%
